Assay results taken from publication PMC3118409 (Cell, 2011).
“And” between values parts separate entries of the source, which are not always exact repeats. Equal entries are not always repeated. Where two headings read alike, the source gives them in different places.

Columns and labels:
[1] = biological target: kynurenine aminotransferase II (KAT II) (Rattus norvegicus, UniProt Q64602); assay: Reverse microdialysis of the KAT II inhibitor ESBA in JM6-treated rats; assay type: in vivo; conditions: JM6 100 mg/kg p.o., ESBA 1 mM locally for 2 h by reverse microdialysis
kynurenine aminotransferase II (KAT II), sequence (Q64602 30-425): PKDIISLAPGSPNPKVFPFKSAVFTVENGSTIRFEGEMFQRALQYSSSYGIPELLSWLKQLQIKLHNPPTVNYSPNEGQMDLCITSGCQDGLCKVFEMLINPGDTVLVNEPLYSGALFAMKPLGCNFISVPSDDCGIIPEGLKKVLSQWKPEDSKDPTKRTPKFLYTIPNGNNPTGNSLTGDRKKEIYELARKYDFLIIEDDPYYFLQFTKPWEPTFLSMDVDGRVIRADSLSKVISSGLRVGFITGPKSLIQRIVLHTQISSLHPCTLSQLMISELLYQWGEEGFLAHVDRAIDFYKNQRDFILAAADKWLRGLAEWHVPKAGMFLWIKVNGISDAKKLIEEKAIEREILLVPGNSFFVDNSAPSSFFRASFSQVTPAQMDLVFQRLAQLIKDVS

[2] = assay type: in vivo, mice; conditions: 5 h
KMO [3] = assay: In vivo microdialysis in prefrontal cortex of rats treated 7 days with JM6; conditions: JM6 for 7 days, 100 mg/kg/day p.o. (legend: 75 mg/kg/day)
APPtg mice [4] = assay: Morris water maze in APPtg mice; assay type: in vivo
APPtg mice [5] = assay: Elevated plus maze in APPtg mice; assay type: in vivo; conditions: JM6 75 mg/kg/day p.o. for ~120 days
APPtg mice [6] = assay: Neuropathology; assay type: in vivo
APPtg mice [7] = assay type: in vivo; conditions: JM6 75 mg/kg/day p.o. for 120 days
R6/2 mice [8] = assay: Survival, body weight and rotarod in R6/2 mice; assay type: in vivo; conditions: chronic JM6 p.o., data not shown
WT mice = assay: Chronic tolerability of JM6 in WT mice; assay type: in vivo; conditions: JM6 25 mg/kg/day p.o. for 12 months, data not shown
R6/2 mice [9] = assay: Neuropathology; assay type: in vivo
KMO [10] = assay: In vivo microdialysis in striatum and serum sampling of rats after acute JM6; conditions: for Level in brain dialysate: JM6 100 mg/kg p.o., data not shown
KMO [11] = biological target: KMO (Rattus norvegicus, UniProt O88867); assay: Inhibition of KMO; assay type: biochemical; conditions: read-out: IC50 for KMO
KMO (Rattus norvegicus, UniProt O88867), sequence (O88867 whole entry): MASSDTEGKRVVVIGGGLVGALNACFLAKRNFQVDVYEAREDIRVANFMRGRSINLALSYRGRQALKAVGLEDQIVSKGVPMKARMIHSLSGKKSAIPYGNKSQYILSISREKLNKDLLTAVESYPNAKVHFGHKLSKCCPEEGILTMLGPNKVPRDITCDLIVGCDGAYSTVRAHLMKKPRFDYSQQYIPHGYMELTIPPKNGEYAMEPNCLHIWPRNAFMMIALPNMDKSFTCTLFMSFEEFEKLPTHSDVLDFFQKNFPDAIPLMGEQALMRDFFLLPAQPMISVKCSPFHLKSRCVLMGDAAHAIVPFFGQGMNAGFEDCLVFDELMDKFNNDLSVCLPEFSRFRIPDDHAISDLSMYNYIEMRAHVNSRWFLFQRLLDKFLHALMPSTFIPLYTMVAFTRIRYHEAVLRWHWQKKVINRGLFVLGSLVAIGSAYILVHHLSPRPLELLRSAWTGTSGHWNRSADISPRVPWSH

[12] = Ro 61-8048 levels in plasma and tissues of chronically JM6-treated R6/2 mice; assay type: in vivo
[13] = Metabolic stability of Ro 61-8048; assay type: in vitro ADME; conditions: data not shown
[14] = WT mice, single JM6 300 mg/kg p.o., LC/MS, 300 mg/kg
[15] = JM6 75 mg/kg/day p.o., data not shown
[16] = JM6 7.5 or 25 mg/kg/day p.o., 12-week-old mice
[17] = WT mice, single JM6 300 mg/kg p.o., LC/MS
[18] = R6/2 mice chronically treated with JM6

CCS(=O)(=O)c1ccc(C(=O)C[C@H](N)C(=O)O)cc1.Cl [ESBA, (S)-(4-ethylsulfonyl)benzoylalanine hydrochloride]
Effect on JM6-induced increases in brain KYNA [1]: prevented completely | Effect on KYNA levels in serum [1]: unaffected

COc1ccc(S(=O)(=O)Nc2nc(-c3cccc([N+](=O)[O-])c3)c(CN3CCCCC3)s2)cc1OC [JM6, 2-(3,4-dimethoxybenzenesulfonylamino)-4-(3-nitrophenyl)-5-(piperidin-1-yl)methylthiazole]
Muscle and liver levels after acute dosing ([2]; WT mice, JM6 300 mg/kg p.o.): negligible | JM6 concentration in brain [2, 14]: 119 ± 46 nM | JM6 concentration in plasma [2, 14]: 39.1 ± 13.2 µM | Extracellular glutamate levels in the brain (prefrontal cortex) (KMO [3]): significant reduction | Spatial memory in Morris water maze, WT mice (APPtg mice [4]; JM6 75 mg/kg/day p.o.): no effect | Spatial memory in Morris water maze, APPtg mice (APPtg mice [4]; JM6 75 mg/kg/day p.o. from 2 months of age, tested at ~6 months): significant improvement | Spatial learning in WT or APPtg mice (APPtg mice [4]; [15]): did not influence | Increase in distance traveled in the open arm of the EPM, APPtg mice (APPtg mice [5]): significantly attenuated | Time spent in the open arm of the elevated plus maze, APPtg mice (APPtg mice [5]): not significantly different from WT littermate controls | Total distance traveled in the EPM (open and closed arm), APPtg mice (APPtg mice [5]): not changed | Synaptic loss (synaptophysin) in cortex and hippocampus, APPtg mice (APPtg mice [6]; JM6 75 mg/kg/day p.o. for 120 days, ~7 months of age): prevented | Aβ plaque load in hippocampus and cortex, APPtg mice (APPtg mice [6]; [15]): did not have a significant effect | Brain 3-HK levels, APPtg mice, vs control mice (APPtg mice [7]): not significantly different | Brain KMO activity, APPtg mice, vs control mice (APPtg mice [7]): not significantly different | Brain KYNA levels, APPtg mice (APPtg mice [7]): increased | Brain QUIN levels, APPtg mice, vs control mice (APPtg mice [7]): not significantly different | Plasma KYNA levels, APPtg mice (APPtg mice [7]): increased | Plasma QUIN levels, APPtg mice, vs control mice (APPtg mice [7]): not significantly different | Body weight of R6/2 mice (R6/2 mice [8]): did not influence | Performance on accelerating rotarod, R6/2 mice (R6/2 mice [8]; early stages of disease): modestly improved | Adverse effects on open field behavior, motor performance, or body weight (WT mice): no adverse effects | Inclusion body size or abundance in frontoparietal cortex, R6/2 mice (R6/2 mice [9]; JM6 25 mg/kg/day p.o. from 4 weeks of age, EM48 immunostaining): did not influence | Iba1-positive cells (microglia) vs vehicle-treated controls, R6/2 mice (R6/2 mice [9]; JM6 7.5 or 25 mg/kg/day p.o. from 4 weeks of age): significantly fewer | Fos immunoreactivity in striatum and cortex, R6/2 mice (R6/2 mice [9]; [16]): prevented the loss | Synaptophysin in striatum and cortex, R6/2 mice (R6/2 mice [9]; [16]): prevented the loss | Level in brain dialysate (KMO [10]): < 10 nM | Serum KYNA level, % of baseline (KMO [10]; single JM6 100 mg/kg p.o., by 5 h): 344% | Extracellular KYNA level in brain (striatum), % of baseline (KMO [10]; single JM6 100 mg/kg p.o., by 5 h, microdialysis): 180%

COc1ccc(S(=O)(=O)Nc2nc(-c3cccc([N+](=O)[O-])c3)cs2)cc1OC [Ro 61-8048, 3,4-dimethoxy-[-N-4-(nitrophenyl)thiazol-2yl]-benzenesulfonamide]
IC50 (KMO [11]): 37 nM | Muscle and liver levels after acute dosing ([2]; WT mice, JM6 300 mg/kg p.o.): negligible | Ro 61-8048 released from JM6, brain level as % of plasma levels ([2]; WT mice, single JM6 300 mg/kg p.o.): 0.002% | Ro 61-8048 released from JM6, concentration in brain [2, 17]: 18 nM and 18 ± 5 nM | Ro 61-8048 released from JM6, concentration in plasma [2, 17]: 7 µM and 7.2 ± 0.8 µM | Ro 61-8048 released from JM6, concentration in liver ([2]; mice, JM6 300 mg/kg p.o.): 132 nM | Ro 61-8048 released from JM6, concentration in muscle ([2]; mice, JM6 300 mg/kg p.o.): 149 nM | Plasma concentration relative to IC50 for KMO [12, 18]: more than eightfold | Ro 61-8048 released from JM6, concentration in plasma [12, 18]: ~ 280 nM | Ro 61-8048 released from JM6 in brain or muscle homogenates ([12]; R6/2 mice chronically treated with JM6, data not shown): could not be detected | Metabolic stability [13]: metabolically unstable | Level in brain dialysate (KMO [10]): < 10 nM
